Values after ≈ are worked out from the molar mass of the structure shown.
What was measured:
Assay in all cases: In vitro antibacterial evaluation: minimum inhibitory concentration (MIC), broth dilution method
Type in all cases: cell-based
[1] = test system: Enterococcus sp.; details: 18 hours at 35° C.
Summary of the method: (§1)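 MIC by broth dilution in Mueller-Hinton II medium following NCCLS M7-A2. Inoculum was 5×10^5 CFU/mL and antibiotic was tested over 64-0.06 μg/mL. Gram-positive panel included clinical isolates resistant to methicillin, penicillin and/or vancomycin.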

[2] = test system: Escherichia coli; details: 18 hours at 35° C.
Summary of the method: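 NCCLS M7-A2 broth dilution; Muller-Hinton II […]; 5×10^5 CFU/mL; 64-0.06 μg/mL. MIC = lowest concentration with no growth.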

[3] = test system: Staphylococcus sp.; details: for MIC Staphylococcus aureus (ATCC 29213): strain ATCC 29213; for MIC Staphylococcus aureus (GC 1131): strain GC 1131; for MIC Staphylococcus aureus (GC 3051): strain GC 3051; for MIC Staphylococcus aureus (GC 3053): strain GC 3053; for MIC Staphylococcus aureus (GC 4541): strain GC 4541; for MIC Staphylococcus aureus (GC 4542): strain GC 4542; for MIC Staphylococcus aureus-SMITH (GC 4543): strain GC 4543; for MIC Staphylococcus aureus (GC 4544): strain GC 4544; for MIC Staphylococcus aureus (GC 4545): strain GC 4545; for MIC Staphylococcus haemolyticus (GC 4546): strain GC 4546; for MIC Coagulase Negative Staphylococcus (GC 4547): strain GC 4547; for MIC Coagulase Negative Staphylococcus (GC 4548): strain GC 4548; for MIC Coagulase Negative Staphylococcus (GC 4549): strain GC 4549; for MIC Coagulase Negative Staphylococcus (GC 4551): strain GC 4551; for MIC Coagulase Negative Staphylococcus (GC 6257): strain GC 6257
Summary of the method: as §1

[4] = test system: Streptococcus sp.; details: 18 hours at 35° C.
Summary of the method: as §1

[5] = Enterococcus faecalis (ATCC 29212)
[6] = Enterococcus faecalis (GC 2242)
[7] = Enterococcus faecalis (GC 2691)
[8] = Enterococcus faecalis (GC 3059)
[9] = Enterococcus faecalis (GC 4552)
[10] = Enterococcus faecalis (GC 4553)
[11] = Enterococcus faecalis (GC 4554)
[12] = Enterococcus faecalis (GC 6189)
[13] = broth dilution, inoculum 5×10^5 CFU/mL
[14] = Streptococcus agalactiae (GC 4564)
[15] = Streptococcus pneumoniae (ATCC 6301)
[16] = Streptococcus pneumoniae (GC 1894)
[17] = Streptococcus pneumoniae (GC 4565)
[18] = Streptococcus pyogenes (GC 4563)

CC(c1ccccc1)C1NC(=O)CNC(=O)C(CO)NC(=O)C(C(O)C2CNC(=N)N2C2OC(CO)C(O)C(O)C2O)NC(=O)C(C(O)C2CNC(=N)N2)NC(=O)C(Cc2ccc(OC3OC(CO)C(OC4OC(CO)C(O)C5OC6(CCCCCCCCCCCC6)OC45)C(O)C3O)cc2)NC1=O (stereo not drawn) [Example 210a, Cyclo[glycyl-β-methylphenylalanyl-O-[4-O-(2,3-O-cyclotridecylidenehexopyranosyl)hexopyranosyl]tyrosyl-3-(2-iminoimidazolidin-4-yl)seryl-3-(3-hexopyranosyl-2-iminoimidazolidin-4-yl)serylseryl]]
MIC Enterococcus avium (GC 4558) ([1]; Enterococcus avium (GC 4558)): 4 µg/mL (≈ 2.71 µM)
MIC Enterococcus faecalis (ATCC 29212) [1, 5]: 8 µg/mL (≈ 5.43 µM)
MIC Enterococcus faecalis (GC 2242) [1, 6]: 8 µg/mL (≈ 5.43 µM)
MIC Enterococcus faecalis (GC 2691) [1, 7]: 8 µg/mL (≈ 5.43 µM)
MIC Enterococcus faecalis (GC 3059) [1, 8]: 8 µg/mL (≈ 5.43 µM)
MIC Enterococcus faecalis (GC 4552) [1, 9]: 8 µg/mL (≈ 5.43 µM)
MIC Enterococcus faecalis (GC 4553) [1, 10]: 8 µg/mL (≈ 5.43 µM)
MIC Enterococcus faecalis (GC 4554) [1, 11]: 8 µg/mL (≈ 5.43 µM)
MIC Enterococcus faecalis (GC 6189) [1, 12]: 8 µg/mL (≈ 5.43 µM)
MIC Enterococcus faecium (GC 2243) ([1]; Enterococcus faecium (GC 2243)): 4 µg/mL (≈ 2.71 µM)
MIC Enterococcus faecium (GC 4556) ([1]; Enterococcus faecium (GC 4556)): 8 µg/mL (≈ 5.43 µM)
MIC Enterococcus faecium (GC 4557) ([1]; Enterococcus faecium (GC 4557)): 4 µg/mL (≈ 2.71 µM)
MIC Enterococcus avium (GC 4558) [1, 13]: 4 µg/mL (≈ 2.71 µM)
MIC Enterococcus faecalis (ATCC 29212) [1, 13]: 8 µg/mL (≈ 5.43 µM)
MIC Enterococcus faecalis (GC 2242) [1, 13]: 8 µg/mL (≈ 5.43 µM)
MIC Enterococcus faecalis (GC 2691) [1, 13]: 8 µg/mL (≈ 5.43 µM)
MIC Enterococcus faecalis (GC 3059) [1, 13]: 8 µg/mL (≈ 5.43 µM)
MIC Enterococcus faecalis (GC 4552) [1, 13]: 8 µg/mL (≈ 5.43 µM)
MIC Enterococcus faecalis (GC 4553) [1, 13]: 8 µg/mL (≈ 5.43 µM)
MIC Enterococcus faecalis (GC 4554) [1, 13]: 8 µg/mL (≈ 5.43 µM)
MIC Enterococcus faecalis (GC 6189) [1, 13]: 8 µg/mL (≈ 5.43 µM)
MIC Enterococcus faecium (GC 2243) [1, 13]: 4 µg/mL (≈ 2.71 µM)
MIC Enterococcus faecium (GC 4556) [1, 13]: 8 µg/mL (≈ 5.43 µM)
MIC Enterococcus faecium (GC 4557) [1, 13]: 4 µg/mL (≈ 2.71 µM)
MIC Escherichia coli (ATCC 25922) [2]: >64 µg/mL
MIC Escherichia coli (GC 4559) [2]: >64 µg/mL
MIC Escherichia coli (GC 4560) [2]: 16 µg/mL (≈ 10.9 µM)
MIC Staphylococcus aureus (ATCC 29213) [3]: 4 µg/mL (≈ 2.71 µM)
MIC Staphylococcus aureus (GC 1131) [3]: 4 µg/mL (≈ 2.71 µM)
MIC Staphylococcus aureus (GC 3051) [3]: 8 µg/mL (≈ 5.43 µM)
MIC Staphylococcus aureus (GC 3053) [3]: 4 µg/mL (≈ 2.71 µM)
MIC Staphylococcus aureus (GC 4541) [3]: 4 µg/mL (≈ 2.71 µM)
MIC Staphylococcus aureus (GC 4542) [3]: 8 µg/mL (≈ 5.43 µM)
MIC Staphylococcus aureus-SMITH (GC 4543) [3]: 4 µg/mL (≈ 2.71 µM)
MIC Staphylococcus aureus (GC 4544) [3]: 8 µg/mL (≈ 5.43 µM)
MIC Staphylococcus aureus (GC 4545) [3]: 4 µg/mL (≈ 2.71 µM)
MIC Staphylococcus haemolyticus (GC 4546) [3]: 8 µg/mL (≈ 5.43 µM)
MIC Coagulase Negative Staphylococcus (GC 4547) [3]: 4 µg/mL (≈ 2.71 µM)
MIC Coagulase Negative Staphylococcus (GC 4548) [3]: 4 µg/mL (≈ 2.71 µM)
MIC Coagulase Negative Staphylococcus (GC 4549) [3]: 2 µg/mL (≈ 1.36 µM)
MIC Coagulase Negative Staphylococcus (GC 4551) [3]: 4 µg/mL (≈ 2.71 µM)
MIC Coagulase Negative Staphylococcus (GC 6257) [3]: 4 µg/mL (≈ 2.71 µM)
MIC Streptococcus agalactiae (GC 4564) [4, 14]: 2 µg/mL (≈ 1.36 µM)
MIC Streptococcus pneumoniae (ATCC 6301) [4, 15]: 0.5 µg/mL (≈ 0.339 µM)
MIC Streptococcus pneumoniae (GC 1894) [4, 16]: <0.06 µg/mL
MIC Streptococcus pneumoniae (GC 4565) [4, 17]: 0.25 µg/mL (≈ 0.17 µM)
MIC Streptococcus pyogenes (GC 4563) [4, 18]: 1 µg/mL (≈ 0.679 µM)
MIC Streptococcus agalactiae (GC 4564) [4, 13]: 2 µg/mL (≈ 1.36 µM)
MIC Streptococcus pneumoniae (ATCC 6301) [4, 13]: 0.5 µg/mL (≈ 0.339 µM)
MIC Streptococcus pneumoniae (GC 1894) [4, 13]: <0.06 µg/mL
MIC Streptococcus pneumoniae (GC 4565) [4, 13]: 0.25 µg/mL (≈ 0.17 µM)
MIC Streptococcus pyogenes (GC 4563) [4, 13]: 1 µg/mL (≈ 0.679 µM)

CC(c1ccccc1)C1NC(=O)CNC(=O)C(CO)NC(=O)C(C(O)C2CNC(=N)N2C2OC(CO)C(O)C(O)C2O)NC(=O)C(C(O)C2CNC(=N)N2)NC(=O)C(Cc2ccc(OC3OC(CO)C(OC4OC5COC6(OC5C(O)C4O)C4CCCC6CCC4)C(O)C3O)cc2)NC1=O (stereo not drawn) [Example 212, Cyclo[glycyl-β-methylphenylalanyl-O-[4-O-(4,6-O-bicyclo[3.3.1]non-9-ylidenehexopyranosyl]hexopyranosyl]tyrosyl-3-(2-iminoimidazolidin-4-yl)seryl-3-(3-hexopyranosyl-2-iminoimidazolidin-4-yl)serylseryl]]
MIC Enterococcus avium (GC 4558) ([1]; Enterococcus avium (GC 4558)): 4 µg/mL (≈ 2.83 µM)
MIC Enterococcus faecalis (ATCC 29212) [1, 5]: 8 µg/mL (≈ 5.65 µM)
MIC Enterococcus faecalis (GC 2242) [1, 6]: 8 µg/mL (≈ 5.65 µM)
MIC Enterococcus faecalis (GC 2691) [1, 7]: 8 µg/mL (≈ 5.65 µM)
MIC Enterococcus faecalis (GC 3059) [1, 8]: 8 µg/mL (≈ 5.65 µM)
MIC Enterococcus faecalis (GC 4552) [1, 9]: 8 µg/mL (≈ 5.65 µM)
MIC Enterococcus faecalis (GC 4553) [1, 10]: 8 µg/mL (≈ 5.65 µM)
MIC Enterococcus faecalis (GC 4554) [1, 11]: 8 µg/mL (≈ 5.65 µM)
MIC Enterococcus faecalis (GC 6189) [1, 12]: 8 µg/mL (≈ 5.65 µM)
MIC Enterococcus faecium (GC 2243) ([1]; Enterococcus faecium (GC 2243)): 8 µg/mL (≈ 5.65 µM)
MIC Enterococcus faecium (GC 4556) ([1]; Enterococcus faecium (GC 4556)): 8 µg/mL (≈ 5.65 µM)
MIC Enterococcus faecium (GC 4557) ([1]; Enterococcus faecium (GC 4557)): 4 µg/mL (≈ 2.83 µM)
MIC Enterococcus avium (GC 4558) [1, 13]: 4 µg/mL (≈ 2.83 µM)
MIC Enterococcus faecalis (ATCC 29212) [1, 13]: 8 µg/mL (≈ 5.65 µM)
MIC Enterococcus faecalis (GC 2242) [1, 13]: 8 µg/mL (≈ 5.65 µM)
MIC Enterococcus faecalis (GC 2691) [1, 13]: 8 µg/mL (≈ 5.65 µM)
MIC Enterococcus faecalis (GC 3059) [1, 13]: 8 µg/mL (≈ 5.65 µM)
MIC Enterococcus faecalis (GC 4552) [1, 13]: 8 µg/mL (≈ 5.65 µM)
MIC Enterococcus faecalis (GC 4553) [1, 13]: 8 µg/mL (≈ 5.65 µM)
MIC Enterococcus faecalis (GC 4554) [1, 13]: 8 µg/mL (≈ 5.65 µM)
MIC Enterococcus faecalis (GC 6189) [1, 13]: 8 µg/mL (≈ 5.65 µM)
MIC Enterococcus faecium (GC 2243) [1, 13]: 8 µg/mL (≈ 5.65 µM)
MIC Enterococcus faecium (GC 4556) [1, 13]: 8 µg/mL (≈ 5.65 µM)
MIC Enterococcus faecium (GC 4557) [1, 13]: 4 µg/mL (≈ 2.83 µM)
MIC Escherichia coli (ATCC 25922) [2]: 32 µg/mL (≈ 22.6 µM)
MIC Escherichia coli (GC 4559) [2]: 32 µg/mL (≈ 22.6 µM)
MIC Escherichia coli (GC 4560) [2]: 2 µg/mL (≈ 1.41 µM)
MIC Staphylococcus aureus (ATCC 29213) [3]: 2 µg/mL (≈ 1.41 µM)
MIC Staphylococcus aureus (GC 1131) [3]: 4 µg/mL (≈ 2.83 µM)
MIC Staphylococcus aureus (GC 3051) [3]: 2 µg/mL (≈ 1.41 µM)
MIC Staphylococcus aureus (GC 3053) [3]: 4 µg/mL (≈ 2.83 µM)
MIC Staphylococcus aureus (GC 4541) [3]: 2 µg/mL (≈ 1.41 µM)
MIC Staphylococcus aureus (GC 4542) [3]: 2 µg/mL (≈ 1.41 µM)
MIC Staphylococcus aureus-SMITH (GC 4543) [3]: 2 µg/mL (≈ 1.41 µM)
MIC Staphylococcus aureus (GC 4544) [3]: 4 µg/mL (≈ 2.83 µM)
MIC Staphylococcus aureus (GC 4545) [3]: 2 µg/mL (≈ 1.41 µM)
MIC Staphylococcus haemolyticus (GC 4546) [3]: 2 µg/mL (≈ 1.41 µM)
MIC Coagulase Negative Staphylococcus (GC 4547) [3]: 2 µg/mL (≈ 1.41 µM)
MIC Coagulase Negative Staphylococcus (GC 4548) [3]: 2 µg/mL (≈ 1.41 µM)
MIC Coagulase Negative Staphylococcus (GC 4549) [3]: 2 µg/mL (≈ 1.41 µM)
MIC Coagulase Negative Staphylococcus (GC 4551) [3]: 2 µg/mL (≈ 1.41 µM)
MIC Coagulase Negative Staphylococcus (GC 6257) [3]: 1 µg/mL (≈ 0.706 µM)
MIC Streptococcus agalactiae (GC 4564) [4, 14]: 1 µg/mL (≈ 0.706 µM)
MIC Streptococcus pneumoniae (ATCC 6301) [4, 15]: 0.5 µg/mL (≈ 0.353 µM)
MIC Streptococcus pneumoniae (GC 1894) [4, 16]: <0.06 µg/mL
MIC Streptococcus pneumoniae (GC 4565) [4, 17]: 0.25 µg/mL (≈ 0.177 µM)
MIC Streptococcus pyogenes (GC 4563) [4, 18]: 1 µg/mL (≈ 0.706 µM)
MIC Streptococcus agalactiae (GC 4564) [4, 13]: 1 µg/mL (≈ 0.706 µM)
MIC Streptococcus pneumoniae (ATCC 6301) [4, 13]: 0.5 µg/mL (≈ 0.353 µM)
MIC Streptococcus pneumoniae (GC 1894) [4, 13]: <0.06 µg/mL
MIC Streptococcus pneumoniae (GC 4565) [4, 13]: 0.25 µg/mL (≈ 0.177 µM)
MIC Streptococcus pyogenes (GC 4563) [4, 13]: 1 µg/mL (≈ 0.706 µM)
